Results published in patent publication US7265109B2, “Thiazole derivatives” (Hoffmann-La Roche Inc., priority 2003, dated 2007).

The compounds below were run against T1, recombinant mouse NPY5-receptor (mNPY5) (Mus musculus, UniProt O70342) (assay: Radioligand competition binding). Conditions: membranes of HEK293 cells expressing mNPY5; 100 pM [125I]labelled peptide YY (PYY); 1 h at 22° C.; read-out: NPY5-R (mouse) IC50.
T1 construct: The full-length cDNA encoding the mouse NPY5 (mNPY5) receptor was amplified from mouse brain cDNA; expressed in transfected cells; membrane preparation
T1 sequence (O70342 1-466): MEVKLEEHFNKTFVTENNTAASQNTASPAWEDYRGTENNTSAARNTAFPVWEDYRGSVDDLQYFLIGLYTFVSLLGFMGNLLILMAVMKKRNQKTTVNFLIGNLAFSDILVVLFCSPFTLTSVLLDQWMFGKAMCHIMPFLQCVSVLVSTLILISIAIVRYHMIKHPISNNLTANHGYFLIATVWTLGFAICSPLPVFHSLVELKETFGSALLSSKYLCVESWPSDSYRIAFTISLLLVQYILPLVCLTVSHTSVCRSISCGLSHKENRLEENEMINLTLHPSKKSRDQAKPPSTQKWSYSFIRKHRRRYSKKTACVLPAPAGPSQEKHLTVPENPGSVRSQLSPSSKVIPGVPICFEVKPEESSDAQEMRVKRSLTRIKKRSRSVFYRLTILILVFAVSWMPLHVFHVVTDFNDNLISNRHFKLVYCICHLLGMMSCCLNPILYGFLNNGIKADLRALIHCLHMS
Source text: The full-length cDNA encoding the mouse NPY5 (mNPY5) receptor was amplified from mouse brain cDNA using specific primers, designed based on the published sequence, and Pfu DNA-Polymerase. The amplification product was subcloned into the mammalian expression vector pcDNA3 using Eco RI and XhoI restriction sites. Positive clones were sequenced and one clone, encoding the published sequence was selected for generation of stable cell clones.
Human embryonic kidney 293 (HEK293) cells were transfected with 10 μg mNPY5 DNA using the lipofectamine reagent. Two days after transfection, geneticin selection (1 mg/ml) was initiated and several stable clones were isolated. One clone was further used for pharmacological characterization.
Human embryonic kidney 293 cells (HEK293), expressing recombinant mouse NPY5-receptor (mNPY5) were broken by three freeze/thawing cycles in hypotonic Tris buffer (5 mM, pH 7.4, 1 mM MgCl2), homogenized and centrifuged at 72,000×g for 15 min. The pellet was washed twice with 75 mM Tris buffer, pH 7.4, containing 25 mM MgCl2 and 250 mM sucrose, 0.1 mM phenylmethylsulfonylfluoride and 0.1 mM 1,10-pheneanthrolin, resuspended in the same buffer and stored in aliquots at −80° C. Protein was determined according to the method of Lowry using bovine serum albumine (BSA) as a standard. […]

How did the IC50 turn out when `Cc1ccccc1C(=O)c1cnc(NCC2CCN(S(=O)(=O)N(C)C)CC2)s1` [Example 18, 4-{[5-(2-Methyl-benzoyl)-thiazol-2-ylamino]-methyl}-piperidine-1-sulfonic acid dimethylamide] was run?
The IC50 was 0.85 nM.

For `CCc1ccccc1C(=O)c1cnc(NC2CCN(S(=O)(=O)c3cccs3)CC2)s1` [Example 32, (2-Ethyl-phenyl)-{2-[1-(thiophene-2-sulfonyl)-piperidin-4-ylamino]-thiazol-5-yl}-methanone], which IC50 is on record?
Its IC50 is 0.75 nM.

How did the IC50 turn out when `Cc1ccccc1C(=O)c1cnc(NC2CCN(S(=O)(=O)c3cccs3)CC2)s1` [Example 41, {2-[1-(Thiophene-2-sulfonyl)-piperidin-4-ylamino]-thiazol-5-yl}-o-tolyl-methanone] was run?
The IC50 was 0.77 nM.
